Experiments:
[1] = tested on: KRAS G12V mutant NCI-H727 cells; experiment: Proliferation inhibition of NCI-H727 cells, 3D CellTiter-Glo assay (Method B); type: cell-based, human; details: Homo sapiens, NCI-H727, 120 h, Method B; 3D culture with 0.65% methylcellulose, 5 days, CTG; read-out: NCI-H727 IC50/nM
In short: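 Cells grown in 3D medium (RPMI-1640, 10% FBS, 0.65% methylcellulose) overnight, then treated 5 days at 37 °C, 5% CO2 with 9 threefold dilutions from 10 µM top working concentration, duplicate wells. CellTiter-Glo luminescence read; IC50 (nM) fitted by dose-response-inhibition equation.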

[2] = tested on: KRAS G12D mutant AGS cells; experiment: Proliferation inhibition of AGS cells, CellTiter-Glo assay; type: cell-based, human; details: Homo sapiens, AGS, 72 h, 3 days, CTG; read-out: AGS IC50/nM
In short: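 AGS cells at 1500 cells/well in F12K + 10% FBS were exposed for 3 days at 37°C to nine 3-fold dilutions from 10 µM top concentration, in duplicate. Viability read by CellTiter-Glo luminescence; IC50 (nM) from dose-response-inhibition fitting.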

[3] = tested on: human lung cancer cells NCI-H441 with KRAS-G12V mutation; experiment: Antitumor effect in NCI-H441 subcutaneous xenograft model; type: in vivo, NU/NU mice; details: 20 mpk, PO; for Tumor volume (mm^3) (day 16): BID×17; for TGI%: BID×17, day 16
Protocol: NCI-H441 cells were purchased from ATCC (catalog number: HTB-174). Male NU/NU mice were purchased from Jiangsu Jicui Yaokang Biotechnology Co., Ltd.
NCI-H441 cells were cultured in RPMI-1640 medium containing 10% FBS. Cells in the logarithmic growth phase were collected and resuspended in PBS to an appropriate concentration for subcutaneous tumor inoculation in mice. Experimental mice were subcutaneously inoculated in the right posterior back at a seeding density of 1×10^6 cells/mouse+Matrigel, with a seeding volume of 0.1 mL. When the average tumor volume reached ~150 mm^3, mice were randomly assigned to groups based on tumor size and body weight for drug administration. Drug administration began immediately after grouping, and the day of administration was considered day 0. The drug was administered to the mice twice daily via gavage at doses of 10 mpk, 20 mpk, 30 mpk, or a solvent control (0.5% Tween 80+99.5% of 0.5% MC (400 cp) or 0.5% MC (400 cp)). During the experiment, mouse body weight and tumor size were measured twice weekly. Tumor size was calculated using the formula: Tumor volume (mm^3)=0.5×(Tumor long diameter × Tumor short diameter^2). Relative tumor inhibition rate (TGI) (%): TGI%=[1-(Average tumor volume at the end of treatment in a given treatment group - Average tumor volume at the start of treatment in the treatment group) / (Average tumor volume at the end of treatment in the solvent control group - Average tumor volume at the start of treatment in the solvent control group)] × 100%.

[4] = tested on: human pancreatic cancer cells HPAC; details: po, 20 mg/kg, 408 h
Protocol: The following materials were used in this experiment: NOD/SCID mice, 6-8 weeks old, female, Jiangsu Jicui Yaokang Biotechnology Co., Ltd.; HPAC cells (carrying KRas G12D mutant protein, ATCC); Captisol (Wuhan Fengyao Tonghui Chemical Products Co., Ltd., Cas#182410-00-0); sodium acetate (aladdin) MC (sigma, 9004-67-5).
The experiment was conducted as follows: 6- to 8- week-old female NOD/SCID mice were subcutaneously inoculated with 1×10^7 HPAC cells in their right posterior back, with an inoculation volume of 0.1 mL. When the tumor reached an average volume of 150 mm^3, mice were randomly assigned to groups based on tumor size and body weight for drug administration. The day of drug administration was considered day 0. The test compound was administered by gavage to four mice in each group, while the control group received an equal volume of the solvent via gavage.
During the experiment, tumor volume and body weight were measured twice a week. Tumor volume was calculated using the formula: Tumor volume (mm^3)=0.5×(tumor long diameter×tumor short diameter^2). The mean tumor inhibition rate (TGI%) was calculated as follows: [(average tumor volume in the control group-average initial tumor volume in the control group)-(average tumor volume in the treatment group - average initial tumor volume in the treatment group)] / (average tumor volume in the control group - average initial tumor volume in the control group).

[5] = tested on: KRAS G12S mutant A549 cells; experiment: Proliferation inhibition of A549 cells, 3D CellTiter-Glo assay; type: cell-based; details: Homo sapiens, A549, 120 h, read-out: A549 IC50/nM
Protocol: A549 cells (Nanjing Kebai Biotechnology Co., Ltd., catalog number CBP60084, adherent, culture medium (F12K Nutrient Mixture+10%FBS (GIBCO, Cat#10091-148) at 37°C, 5%CO2, and 95% humidity.
3D Cell Viability Assay: Cells in the logarithmic growth phase were harvested and counted using a platelet counter. Cell viability was assessed using the trypan blue exclusion method to ensure a viability of over 90%. The 3D cell culture medium was prepared by adding 1% MC (methylcellulose, Sigma, Cat#M0512) F-12K medium and 10% FBS. The cell concentration was adjusted to approximately 7407 cells/mL using the 3D medium, and the methylcellulose (MC) content was set to 0.65%. Then, 135 µL of cell suspension was added to each 96-well clear, flat-bottomed, black-walled plate (Greiner, Cat#655096). The cells in the 96-well plates were cultured overnight at 37°C with 5% CO2.
Drug preparation for IC50 assay: A 10-fold drug solution was prepared using culture medium. […] of the drug solution was added to each well of a 96-well plate seeded with cells to achieve a working concentration of up to 10 µM, with a 3× dilution, and 9 concentrations. 2 replicate wells for each drug concentration were set. The cells in the drug-treated 96-well plates were cultured at 37°C and 5% CO^2 for additional5 days, then CTG assay (CellTiter-Glo® Luminescent Cell Viability Assay (Promega, Cat#G7573)) were performed.
The cell plate was equilibrated to room temperature for 30 minutes and the CTG reagent was thawed. 75 µL of CTG solution was added to each well for detection, and the plate was shaken on an orbital shaker for 5 minutes to lyse the cells. The cell plate was placed at room temperature for 25 minutes to stabilize the cryo-luminescence signal and the cryo-luminescence value was read (EnVision® multi-plate reader, PerkinElmer#2105).
Data was analyzed using GraphPad Prism software. The dose-response-inhibition equation was used to fit the data to obtain the dose-response curve, and the IC50 value (nM) was calculated accordingly. [formula]

in vivo = details: mouse, po, 20 mg/kg
Protocol: (§1) Male CD-1 mice, aged 6-8 weeks, were purchased from Zhejiang Vital River Laboratory Animal Co., Ltd.
(§2) For the PO administration group, compounds were formulated in 0.5% Tween 80 and 99.5% (0.5%MC (400cp)) vehicle or 0.5%MC (400cp) vehicle to a final concentration of 1 mg/mL or 2 mg/mL for each compound. The drug formulation was administered to CD-1 mice via gavage at a dose of 10 mL/kg. Blood samples were collected from the submandibular vein or other suitable means at 15 min, 30 min, 1 h, 2 h, 4 h, 6 h, 8 h, and 24 h after administration. The blood samples were centrifuged at low temperature for 5 minutes, and the plasma was collected and stored at -80°C for analysis.
(§3) 10 µL of plasma sample was taken, 200 µL of methanol containing an internal standard as a precipitant was added to precipitate plasma proteins, the compounds to be tested in the plasma was extracted, centrifuged at low temperature, and 10 µL of the supernatant was injected. The drug concentration in blood plasma was analyzed by LC-MS/MS. The pharmacokinetic parameters were calculated using Winnonlin based on the blood drug concentration data at different time points.

Pharmacokinetics in mice = details: mouse, plasma, po
Protocol: as §1, §2, §3

Structure (SMILES)	IC50 [1]	IC50 [2]	Tumor volume (mm^3) (day 16) [3]	TGI% [3]	TGI% [4]	Tumor volume (mm^3) (day 17) [4]	IC50 [5]	AUC(0-t) at 8 h (in vivo)	AUC(0-t) at 8 h (Pharmacokinetics in mice; 20 mg/kg)	AUC(0-t) at 8 h (Pharmacokinetics in mice; 10 mg/kg)
[2H]C([2H])([2H])N1CCC(=CF)C(C)(COc2nc(N3CCCn4nc(C(=O)N(C)C)c(Cl)c4C3)c3cc(CC)c(-c4c(F)ccc5sc(N)c(C#N)c45)c(F)c3n2)C1 (atropisomer, axis not shown) [Example 265A]	2.8 nM	< 1.5 nM	330 mm^3	57%	80%	237 mm^3				
CCc1cc2c(N3Cc4cc(C(=O)N(C)C)nn4CC[C@@H]3C)nc(OC[C@]3(C)CN(CC)CC/C3=C\F)nc2c(F)c1-c1c(F)ccc2sc(N)c(C#N)c12 (single isomer, unassigned) [Example 175A]	< 1.5 nM	< 1.5 nM	266 mm^3	73%			23.3 nM			
CCN1CC/C(=C\F)[C@](C)(COc2nc(N3Cc4c(COC)c(C(=O)N(C)C)nn4CC[C@@H]3C)c3cc(C(F)(F)F)c(-c4c(F)ccc5sc(N)c(C#N)c45)c(F)c3n2)C1 (single isomer, unassigned) [Example 232A]	< 1.5 nM	< 1.5 nM						1520 ng·h/mL		
[2H]C([2H])([2H])N1CC/C(=C\F)[C@](C)(COc2nc(N3Cc4cc(C(=O)N(C)C)nn4CC[C@@H]3C)c3cc(C(F)(F)F)c(-c4c(F)ccc5sc(N)c(C#N)c45)c(F)c3n2)C1 (single isomer, unassigned) [Example 247A]	< 1.5 nM	< 1.5 nM	162 mm^3	97%	98%	161 mm^3				
CCN1CC/C(=C\F)[C@](C)(COc2nc(N3CCCn4nc(C(=O)N(C)C)c(Cl)c4C3)c3cc(Cl)c(-c4c(F)ccc5sc(N)c(C#N)c45)c(F)c3n2)C1 (single isomer, unassigned) [Example 256A]	< 1.5 nM	1.5 nM							1380 ng·h/mL	
[2H]C([2H])([2H])N1CC/C(=C\F)[C@](C)(COc2nc(N3Cc4c(COC)c(C(=O)N(C)C)nn4CC[C@@H]3C)c3cc(CC)c(-c4c(F)ccc5sc(N)c(C#N)c45)c(F)c3n2)C1 (single isomer, unassigned) [Example 258A]	< 1.5 nM	1.9 nM							1320 ng·h/mL	
CCN1CC/C(=C\F)[C@](C)(COc2nc(N3Cc4cc(C(C)=O)nn4CC[C@@H]3C)c3cc(Cl)c(-c4c(F)ccc5sc(N)c(C#N)c45)c(F)c3n2)C1 (single isomer, unassigned) [Example 268A]	4 nM	3.5 nM								907 ng·h/mL
CCN1CCC(C(F)F)C(C)(COc2nc(N3Cc4c(COC)c(C(=O)N(C)C)nn4CCC3C)c3cc(Cl)c(-c4c(F)ccc5sc(N)c(C#N)c45)c(F)c3n2)C1 (stereo not shown) [Example 251A]	< 1.5 nM	1.8 nM							1960 ng·h/mL	
[2H]C([2H])([2H])N1CCC(=CF)C(C)(COc2nc(N3Cc4cc(C(=O)N(C)C)nn4CCC3C)c3cc(Cl)c(-c4c(F)ccc5sc(N)c(C#N)c45)c(F)c3n2)C1 (stereo not shown) [Example 255A]	< 1.5 nM	< 1.5 nM	259 mm^3	74%						
[2H]C([2H])([2H])N1CC/C(=C\F)[C@](C)(COc2nc(N3CCCn4nc(C(=O)N(C)C)c(Cl)c4C3)c3cc(C4CC4)c(-c4c(F)ccc5sc(N)c(C#N)c45)c(F)c3n2)C1 [Example 266A]	3 nM	< 1.5 nM	307 mm^3	63%						
